Patent publication US9371305B2, “Deuterated benzopyran compounds and application thereof” (Guangzhou Institutes of Biomedicine And Health, Chinese …, priority 2012, dated 2016)
Like-named read-outs stand apart in the source and are kept apart here.

Legend:
ovine COX-1 = molecular target: T1, ovine COX-1 (Ovis aries, UniProt P05979); test: COX-1 enzyme inhibition (ADHP fluorescence); format: biochemical
T1 sequence (P05979 25-600): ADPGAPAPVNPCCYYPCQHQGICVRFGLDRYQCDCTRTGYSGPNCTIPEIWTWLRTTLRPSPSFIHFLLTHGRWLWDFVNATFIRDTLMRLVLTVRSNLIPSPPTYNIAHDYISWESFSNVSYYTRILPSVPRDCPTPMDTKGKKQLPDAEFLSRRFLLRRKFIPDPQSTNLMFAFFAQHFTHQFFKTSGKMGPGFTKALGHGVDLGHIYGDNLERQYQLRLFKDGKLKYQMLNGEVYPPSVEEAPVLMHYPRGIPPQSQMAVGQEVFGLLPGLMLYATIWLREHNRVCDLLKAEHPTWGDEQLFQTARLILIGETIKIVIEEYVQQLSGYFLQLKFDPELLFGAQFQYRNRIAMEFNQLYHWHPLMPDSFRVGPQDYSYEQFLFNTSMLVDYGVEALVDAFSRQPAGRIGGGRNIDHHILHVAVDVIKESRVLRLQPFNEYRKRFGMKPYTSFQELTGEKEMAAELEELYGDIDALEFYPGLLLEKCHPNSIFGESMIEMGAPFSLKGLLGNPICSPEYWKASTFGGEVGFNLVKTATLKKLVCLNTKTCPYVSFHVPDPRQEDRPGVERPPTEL
Method: (§1) Deuterated benzopyran compounds of different concentrations were uniformly mixed with ovine COX-1 and human recombinant COX-2 for incubation for 15 min, respectively, and then the system was added with Heme and ADHP for incubation for another 2 min and finally added with substrate arachidonic acid. The light emission intensity of the reaction product at 595 nm was immediately detected by a microplate reader under exciting light at 530 nm. […] In the whole blood assay, venous blood of healthy donors was collected with a non-anticoagulation tube and a heparin tube, deuterated benzopyran compounds of different concentrations (1×10^−8 to 1×10^−4) were mixed with the blood in the non-anticoagulation tube, the supernatant was collected after the blood was coagulated and then measured by ELISA in terms of the yield of TXB2; and deuterated benzopyran compounds of different concentrations (1×10^−8 to 1×10^−4) were mixed with the blood in the heparin tube, the mixture was added with lipopolysaccharide until the final concentration was 100 μg/mL, mixed uniformly and then kept stand overnight at 37° C., the supernatant was collected by centrifugation and then measured by ELISA in terms of the yield of PGE2. […]

[1] = system: generation of TXB2 in the whole blood; test: whole blood assay, yield of TXB2 in coagulated blood (ELISA); format: cell-based; settings: Homo sapiens, read-out: inhibition IC50 onto generation of TXB2 in the whole blood test
Method: as §1

[2] = system: generation of PGE2 in the whole blood; test: whole blood assay, lipopolysaccharide-induced yield of PGE2 in heparin blood (ELISA); format: cell-based, human; settings: for IC50: Homo sapiens, read-out: inhibition IC50 onto generation of PGE2 in the whole blood test
Method: (§2) Deuterated benzopyran compounds of different concentrations were uniformly mixed with ovine COX-1 and human recombinant COX-2 for incubation for 15 min, respectively, and then the system was added with Heme and ADHP for incubation for another 2 min and finally added with substrate arachidonic acid. The light emission intensity of the reaction product at 595 nm was immediately detected by a microplate reader under exciting light at 530 nm. […] In the whole blood assay, venous blood of healthy donors was collected with a non-anticoagulation tube and a heparin tube, deuterated benzopyran compounds of different concentrations (1×10^−8 to 1×10^−4) were mixed with the blood in the non-anticoagulation tube, the supernatant was collected after the blood was coagulated and then measured by ELISA in terms of the yield of TXB2; and deuterated benzopyran compounds of different concentrations (1×10^−8 to 1×10^−4) were mixed with the blood in the heparin tube, the mixture was added with lipopolysaccharide until the final concentration was 100 μg/mL, mixed uniformly and then kept stand overnight at 37° C., the supernatant was collected by centrifugation and then measured by ELISA in terms of the yield of PGE2.

[3] = Test on pharmacokinetics and bioavailability of rats; format: in vivo, SD rats; settings: for Vd / BA / AUC / Cmax / Tmax / half-life / t½: male SD rats; for BA: oral, calculated according AUC data; for AUC / Cmax / Tmax / half-life / t½: oral administration; for half-life: read-out: t½ (converted)
Method: The blood samples employ acetonitrile to precipitate protein, 16000 rpm*30 min, and the supernatant is used for LC/MS analysis. Data is performed with parameter fitting by DAS2.0, and the bioavailability of oral administration of compounds is calculated according AUC data.

human recombinant COX-2 = molecular target: T2, human recombinant COX-2 (Homo sapiens, UniProt P35354); test: COX-2 enzyme inhibition (ADHP fluorescence); format: biochemical; settings: for IC50: human recombinant COX-2, 15 min incubation
T2 sequence (P35354 18-604): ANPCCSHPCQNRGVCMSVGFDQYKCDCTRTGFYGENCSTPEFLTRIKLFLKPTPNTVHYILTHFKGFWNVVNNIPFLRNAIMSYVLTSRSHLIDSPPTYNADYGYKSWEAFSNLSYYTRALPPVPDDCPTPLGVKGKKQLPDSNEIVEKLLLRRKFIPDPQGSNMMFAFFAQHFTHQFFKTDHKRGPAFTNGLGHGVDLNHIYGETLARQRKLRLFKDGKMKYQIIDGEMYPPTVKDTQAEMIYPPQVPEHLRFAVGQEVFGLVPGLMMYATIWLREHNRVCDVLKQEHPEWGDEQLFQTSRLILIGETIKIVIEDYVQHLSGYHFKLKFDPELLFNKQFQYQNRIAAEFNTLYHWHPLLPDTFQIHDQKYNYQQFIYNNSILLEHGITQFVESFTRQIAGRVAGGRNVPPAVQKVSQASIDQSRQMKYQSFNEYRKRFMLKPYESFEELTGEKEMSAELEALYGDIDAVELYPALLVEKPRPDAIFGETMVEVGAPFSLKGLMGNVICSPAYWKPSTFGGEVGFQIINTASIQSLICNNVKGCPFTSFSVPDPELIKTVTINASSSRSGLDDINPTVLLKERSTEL
Method: as §2

[4] = ovine COX-1, 15 min incubation, read-out: Inhibition IC50 COX-1
[5] = rat, plasma, single dose 25 mg/kg
[6] = rat, plasma, single dose 25 mg/kg, read-out: Cmax
[7] = rat, plasma, single dose 25 mg/kg, read-out: Tmax
[8] = rat, plasma, single dose 2.5 mg/kg
[9] = rat, plasma, single dose 2.5 mg/kg, read-out: Cmax
[10] = rat, plasma, single dose 2.5 mg/kg, read-out: Tmax
[11] = blood of healthy donors, non-anticoagulation tube
[12] = blood of healthy donors, heparin tube, lipopolysaccharide 100 μg/mL, overnight at 37° C.
[13] = rat, plasma, single dose 10 mg/kg

Structure (SMILES)	IC50 (ovine COX-1; [4])	IC50 [1]	IC50 [2]	Vd ([3]; single dose 2.5 mg/kg)	BA ([3]; single dose 2.5 mg/kg)	AUC [3, 8]	Cmax [3, 9]	Tmax [3, 10]	half-life [3, 8]	other results
[2H]C([2H])([2H])c1ccc2c(c1)C=C(C(=O)O)C(C(F)(F)F)O2 (centres unmarked) [GIBH-1004, 6-(methyl-D3)-2-(trifluoromethyl)-2H-chromence-3-carboxylic acid]	> 100 µM	> 100 µM	67.5 µM							Vd ([3]; single dose 25 mg/kg): 0.58 L/kg; BA ([3]; single dose 25 mg/kg): 46.1%; AUC [3, 5]: 181000 ng·h/mL; Cmax [3, 6]: 34200 ng/mL; Tmax [3, 7]: 0.563 h; half-life [3, 5]: 2.88 h
[2H]C([2H])([2H])c1c(Br)c2c(c(C([2H])([2H])[2H])c1Br)C=C(C(=O)O)C(C(F)(F)F)O2 (centres unmarked) [GIBH-1051, 6,8-dibromo-5,7-(dimethyl-D6)-2-(trifluoromethyl)-2H-chromene-3-carboxylic acid]	5.45 µM	70.6 µM	> 100 µM	1.004 L/kg	63.7%	13000 ng·h/mL	4480 ng/mL	0.688 h	1.76 h	IC50 (human recombinant COX-2): 0.0841 µM
[2H]C([2H])([2H])c1cc2c(c(C([2H])([2H])[2H])c1Cl)C=C(C(=O)O)C(C(F)(F)F)O2 (centres unmarked) [GIBH-1008, 6-chloro-5,7-(dimethyl-D6)-2-(trifluoromethyl)-2H-chromene-3-carboxylic acid]	> 100 µM									IC50 (ovine COX-1; read-out: IC50 value of COX-1): > 100 µM; IC50 [1, 11]: 65.1 µM; IC50 [2, 12]: 78.5 µM; Vd ([3]; single dose 10 mg/kg): 0.26 L/kg; Cmax ([3]; single dose 10 mg/kg): 20900 ng/mL; Tmax ([3]; single dose 10 mg/kg): 1.167 h; t½ ([3]; single dose 10 mg/kg): 2.1 h; BA ([3]; single dose 10 mg/kg): 92.8%; AUC [3, 13]: 118000 ng·h/mL
[2H]C([2H])([2H])c1cc(Cl)cc2c1OC(C(F)(F)F)C(C(=O)O)=C2 (centres unmarked) [GIBH-1012, 6-chloro-8-(methyl-D3)-2-(trifluoromethyl)-2H-chromene-3-carboxylic acid]	> 100 µM	> 100 µM	> 100 µM		110.7%	38900 ng·h/mL				Cmax ([3]; single dose 2.5 mg/kg): 8945 ng/mL; Tmax ([3]; single dose 2.5 mg/kg): 0.5 h; t½ ([3]; single dose 2.5 mg/kg): 3.37 h
[2H]C([2H])([2H])c1cc(Br)cc2c1OC(C(F)(F)F)C(C(=O)O)=C2 (centres unmarked) [GIBH-1014, 6-bromo-8-(methyl-D3)-2-(trifluoromethyl)-2H-chromene-3-carboxylic acid]	31.8 µM	> 100 µM	45.2 µM							ratio of the selectivity to COX-2 to the selectivity to COX-1 (human recombinant COX-2; from enzyme IC50 values COX-1/COX-2): 862; IC50 (human recombinant COX-2): 0.0368 µM; selectivity to the inhibition of COX-2 enzyme of blood cells ([2]; human whole blood COX enzyme activity test): better selectivity; Vd ([3]; single dose 10 mg/kg): 0.53 L/kg; Cmax ([3]; single dose 10 mg/kg): 35300 ng/mL; Tmax ([3]; single dose 10 mg/kg): 0.417 h; t½ ([3]; single dose 10 mg/kg): 5.2 h; BA ([3]; single dose 10 mg/kg): 107.4%; AUC [3, 13]: 143000 ng·h/mL
[2H]C([2H])([2H])c1cc(Cl)c2c(c1)C=C(C(=O)O)C(C(F)(F)F)O2 (centres unmarked) [GIBH-1018, 8-chloro-6-(methyl-D3)-2-(trifluoromethyl)-2H-chromene-3-carboxylic acid]	> 100 µM	> 100 µM	78.9 µM	0.31 L/kg	90.6%	28300 ng·h/mL	11800 ng/mL	0.271 h	2.43 h	
[2H]C([2H])([2H])c1cc2c(c(C([2H])([2H])[2H])c1)OC(C(F)(F)F)C(C(=O)O)=C2 (centres unmarked) [GIBH-1016, 6,8-(dimethyl-D6)-2-(trifluoromethyl)-2H-chromene-3-carboxylic acid]		> 100 µM	> 100 µM	0.94 L/kg	65.1%	4330 ng·h/mL	4400 ng/mL	0.187 h	1.04 h	IC50 (ovine COX-1): > 100 µM
[2H]C([2H])([2H])C([2H])([2H])c1cc(OC(F)(F)F)cc2c1OC(C(F)(F)F)C(C(=O)O)=C2 (centres unmarked) [GIBH-1006, 8-(ethyl-D5)-6-(trifluoromethoxy)-2-(trifluoromethyl)-2H-chromene-3-carboxylic acid]	> 100 µM									IC50 [1, 11]: 20.5 µM; IC50 [2, 12]: 79.5 µM; Vd ([3]; single dose 25 mg/kg): 0.68 L/kg; BA ([3]; single dose 25 mg/kg): 78.6%; AUC value compared among the compounds (in words) ([3]; rat PK, doses differ between compounds): highest; AUC [3, 5]: 511000 ng·h/mL; Cmax [3, 6]: 29500 ng/mL; Tmax [3, 7]: 1.62 h; half-life [3, 5]: 9.54 h
